Source: patent US9763957B2, “Autotaxin inhibitors” (Novartis AG, priority 2013, dated 2017)

Molecular target: Recombinant human ATX (Homo sapiens (Human), UniProt Q13822)
Assay: ATX inhibition assay (choline release, Amplex Red fluorescence)
Format: biochemical
Settings: ATX 10 nM, LPC 18:1 10 μM, 37° C., 20 min pre-incubation; mean of n≧2
Summary of the method: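 Activity was taken from the slope of resorufin fluorescence (530/590 nm, read every 2 min for 40 min at 37 °C) produced by choline liberated from 10 μM oleoyl LPC.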

Row | SMILES | IC50
1 | COc1ccc(CN2CCN(C(=O)/C=C/c3ccc(Cl)cc3Cn3nnc(C)n3)[C@H](C)C2)nc1 [Example 123, (R,E)-3-(4-Chloro-2-((5-methyl-2H-tetrazol-2-yl)methyl)phenyl)-1-(4-((5-methoxypyridin-2-yl)methyl)-2-methylpiperazin-1-yl)prop-2-en-1-one] | 3.5 nM
2 | Cc1nnn(Cc2cc(C(F)(F)F)ccc2/C=C/C(=O)N2CCCCC2C(F)(F)F)n1 (stereo not drawn) [Example 124, (E)-3-(2-((5-Methyl-2H-tetrazol-2-yl)methyl)-4-(trifluoromethyl)phenyl)-1-(2-(trifluoromethyl)piperidin-1-yl)prop-2-en-1-one] | 35 nM
3 | CC(=O)NC1CCN(C(=O)/C=C/c2ccc(Cl)cc2Cn2nnc(C)n2)CC1 [Example 125, (E)-N-(1-(3-(4-Chloro-2-((5-methyl-2H-tetrazol-2-yl)methyl)phenyl)acryloyl)piperidin-4-yl)acetamide] | 110 nM
4 | Cc1nnn(Cc2cc(C(F)(F)F)ccc2/C=C/C(=O)N2CCC(N3CCCC3=O)CC2)n1 [Example 126, (E)-1-(1-(3-(2-((5-Methyl-2H-tetrazol-2-yl)methyl)-4-(trifluoromethyl)phenyl)acryloyl)piperidin-4-yl)pyrrolidin-2-one] | 22 nM
5 | Cc1nnn(Cc2cc(Cl)ccc2/C=C/C(=O)N2CCC(Cc3nnc(C)o3)CC2)n1 [Example 127, (E)-3-(4-Chloro-2-((5-methyl-2H-tetrazol-2-yl)methyl)phenyl)-1-(4-((5-methyl-1,3,4-oxadiazol-2-yl)methyl)piperidin-1-yl)prop-2-en-1-one] | 60 nM
6 | COC(=O)C1CCN(C(=O)/C=C/c2ccc(Cl)cc2Cn2nnc(C)n2)CC1 [Example 128, (E)-Methyl 1-(3-(4-chloro-2-((5-methyl-2H-tetrazol-2-yl)methyl)phenyl)acryloyl)piperidine-4-carboxylate] | 28 nM
7 | Cc1nnn(Cc2cc(Cl)ccc2/C=C/C(=O)N2CCC(CC(=O)N3CCOCC3)CC2)n1 [Example 129, (E)-3-(4-Chloro-2-((5-methyl-2H-tetrazol-2-yl)methyl)phenyl)-1-(4-(2-morpholino-2-oxoethyl)piperidin-1-yl)prop-2-en-1-one] | 49 nM
8 | Cc1nnn(Cc2cc(Cl)ccc2/C=C/C(=O)N2CC(Oc3ccc(F)cc3)C2)n1 [Example 130, (E)-3-(4-Chloro-2-((5-methyl-2H-tetrazol-2-yl)methyl)phenyl)-1-(3-(4-fluorophenoxy)azetidin-1-yl)prop-2-en-1-one] | 170 nM
9 | Cc1nnn(Cc2cc(C(F)(F)F)ccc2/C=C/C(=O)N2C[C@@H](F)C[C@H]2CO)n1 [Example 131, (E)-1-((2S,4S)-4-Fluoro-2-(hydroxymethyl)pyrrolidin-1-yl)-3-(2-((5-methyl-2H-tetrazol-2-yl)methyl)-4-(trifluoromethyl)phenyl)prop-2-en-1-one] | 23 nM
10 | Cc1nnn(Cc2cc(C(F)(F)F)ccc2/C=C/C(=O)N2CCN(Cc3coc(C)n3)C[C@H]2CO)n1 [Example 132, (S,E)-1-(2-(Hydroxymethyl)-4-((2-methyloxazol-4-yl)methyl)piperazin-1-yl)-3-(2-((5-methyl-2H-tetrazol-2-yl)methyl)-4-(trifluoromethyl)phenyl)prop-2-en-1-one] | 14 nM
11 | Cc1nnn(Cc2cc(C(F)(F)F)ccc2/C=C/C(=O)N2CCC[C@H]2CO)n1 [Example 133, (S,E)-1-(2-(Hydroxymethyl)pyrrolidin-1-yl)-3-(2-((5-methyl-2H-tetrazol-2-yl)methyl)-4-(trifluoromethyl)phenyl)prop-2-en-1-one] | 81 nM
12 | Cc1nnn(Cc2cc(Cl)ccc2/C=C/C(=O)N2CCC(c3nnc(CN4CCOCC4)o3)CC2)n1 [Example 134, (E)-3-(4-Chloro-2-((5-methyl-2H-tetrazol-2-yl)methyl)phenyl)-1-(4-(5-(morpholinomethyl)-1,3,4-oxadiazol-2-yl)piperidin-1-yl)prop-2-en-1-one] | 12 nM
13 | Cc1nnn(Cc2cc(Cl)ccc2/C=C/C(=O)N2CCC(Oc3ccc(C(F)(F)F)cn3)CC2)n1 [Example 135, (E)-3-(4-Chloro-2-((5-methyl-2H-tetrazol-2-yl)methyl)phenyl)-1-(4-((5-(trifluoromethyl)pyridin-2-yl)oxy)piperidin-1-yl)prop-2-en-1-one] | 327 nM
14 | Cc1nnn(Cc2cc(Cl)ccc2/C=C/C(=O)N2CCC(Cc3nnc(CN4CCOCC4)o3)CC2)n1 [Example 136, (E)-3-(4-Chloro-2-((5-methyl-2H-tetrazol-2-yl)methyl)phenyl)-1-(4-((5-(morpholinomethyl)-1,3,4-oxadiazol-2-yl)methyl)piperidin-1-yl)prop-2-en-1-one] | 32 nM
15 | Cc1nnn(Cc2cc(Cl)ccc2/C=C/C(=O)N2CCC(O)(Cc3ccccc3)CC2)n1 [Example 138, (E)-1-(4-Benzyl-4-hydroxypiperidin-1-yl)-3-(4-chloro-2-((5-methyl-2H-tetrazol-2-yl)methyl)phenyl)prop-2-en-1-one-N] | 6.3 nM
16 | Cc1nnn(Cc2cc(Cl)ccc2/C=C/C(=O)N2CCC(Cc3ccccc3)CC2)n1 [Example 139, (E)-1-(4-Benzylpiperidin-1-yl)-3-(4-chloro-2-((5-methyl-2H-tetrazol-2-yl)methyl)phenyl)prop-2-en-1-one] | 67 nM
17 | COc1ccc(CN2CCN(C(=O)/C=C/c3ccc(Cl)cc3Cn3nnc(C)n3)CC2)nc1 [Example 140.1, (E)-3-(4-Chloro-2-((5-methyl-2H-tetrazol-2-yl)methyl)phenyl)-1-(4-((5-methoxypyridin-2-yl)methyl)piperazin-1-yl)prop-2-en-1-one] | 5.9 nM
18 | Cc1cc(CN2CCN(C(=O)/C=C/c3ccc(Cl)cc3Cn3nnc(C)n3)CC2)on1 [Example 140.2, (E)-3-(4-Chloro-2-((5-methyl-2H-tetrazol-2-yl)methyl)phenyl)-1-(4-((3-methylisoxazol-5-yl)methyl)piperazin-1-yl)prop-2-en-1-one] | 64 nM
19 | Cc1nnn(Cc2cc(Cl)ccc2/C=C/C(=O)N2CCN(Cc3coc(C)n3)CC2)n1 [Example 140.3, (E)-3-(4-Chloro-2-((5-methyl-2H-tetrazol-2-yl)methyl)phenyl)-1-(4-((2-methyloxazol-4-yl)methyl)piperazin-1-yl)prop-2-en-1-one] | 30 nM
20 | Cc1nnn(Cc2cc(Cl)ccc2/C=C/C(=O)N2CCN(Cc3nc4ccccc4n3C)CC2)n1 [Example 140.4, (E)-3-(4-Chloro-2-((5-methyl-2H-tetrazol-2-yl)methyl)phenyl)-1-(4-((1-methyl-1H-benzo[d]imidazol-2-yl)methyl)piperazin-1-yl)prop-2-en-1-one] | 43 nM

Continued, values first:

Row | IC50 | SMILES
21 | 42 nM | Cc1nnn(Cc2cc(Cl)ccc2/C=C/C(=O)N2CCN(Cc3cc(-c4ccccc4)nn3C)CC2)n1 [Example 140.6, (E)-3-(4-Chloro-2-((5-methyl-2H-tetrazol-2-yl)methyl)phenyl)-1-(4-((1-methyl-3-phenyl-1H-pyrazol-5-yl)methyl)piperazin-1-yl)prop-2-en-1-one]
22 | 8.8 nM | Cc1nnn(Cc2cc(Cl)ccc2/C=C/C(=O)N2CCN(Cc3cnc(N4CCOCC4)nc3)CC2)n1 [Example 140.8, (E)-3-(4-Chloro-2-((5-methyl-2H-tetrazol-2-yl)methyl)phenyl)-1-(4-((2-morpholinopyrimidin-5-yl)methyl)piperazin-1-yl)prop-2-en-1-one]
23 | 34 nM | Cc1nnn(Cc2cc(Cl)ccc2/C=C/C(=O)N2CCN(Cc3cnn(C)c3)CC2)n1 [Example 140.9, (E)-3-(4-Chloro-2-((5-methyl-2H-tetrazol-2-yl)methyl)phenyl)-1-(4-((1-methyl-1H-pyrazol-4-yl)methyl)piperazin-1-yl)prop-2-en-1-one]
24 | 11 nM | Cc1nnn(Cc2cc(Cl)ccc2/C=C/C(=O)N2CCC(c3nnc(CC(F)(F)F)o3)CC2)n1 [Example 141, (E)-3-(4-Chloro-2-((5-methyl-2H-tetrazol-2-yl)methyl)phenyl)-1-(4-(5-(2,2,2-trifluoroethyl)-1,3,4-oxadiazol-2-yl)piperidin-1-yl)prop-2-en-1-one]
25 | 12 nM | Cc1nnn(Cc2cc(C(F)(F)F)ccc2/C=C/C(=O)N2CCOCC2C(F)(F)F)n1 (stereo not drawn) [Example 142, (E)-3-(2-((5-Methyl-2H-tetrazol-2-yl)methyl)-4-(trifluoromethyl)phenyl)-1-(3-(trifluoromethyl)morpholino)prop-2-en-1-one]
26 | 31 nM | C[C@@H]1CN(Cc2ccc(F)cc2)CCN1C(=O)/C=C/c1ccc(Cl)cc1Cc1nnn(C)n1 [Example 143, (R,E)-3-(4-Chloro-2-((2-methyl-2H-tetrazol-5-yl)methyl)phenyl)-1-(4-(4-fluorobenzyl)-2-methylpiperazin-1-yl)prop-2-en-1-one]
27 | 14 nM | Cc1nc(Cc2cc(Cl)ccc2/C=C/C(=O)N2CCN(Cc3ccc(F)cc3)C[C@H]2C)no1 [Example 144, (R,E)-3-(4-Chloro-2-((5-methyl-1,2,4-oxadiazol-3-yl)methyl)phenyl)-1-(4-(4-fluorobenzyl)-2-methylpiperazin-1-yl)prop-2-en-1-one]
28 | 13 nM | Cc1nnn(Cc2cc(Cl)ccc2/C=C/C(=O)N2CCC(CCNC(=O)c3c[nH]nn3)CC2)n1 [Example 145, (E)-N-(2-(1-(3-(4-Chloro-2-((5-methyl-2H-tetrazol-2-yl)methyl)phenyl)acryloyl)piperidin-4-yl)ethyl)-1H-1,2,3-triazole-4-carboxamide]
29 | 17 nM | Cc1nnn(Cc2cc(Cl)ccc2/C=C/C(=O)N2CCC(CCNC(=O)c3c[nH]nc3C(F)(F)F)CC2)n1 [Example 146, (E)-N-(2-(1-(3-(4-Chloro-2-((5-methyl-2H-tetrazol-2-yl)methyl)phenyl)acryloyl)piperidin-4-yl)ethyl)-3-(trifluoromethyl)-1H-pyrazole-4-carboxamide]
30 | 13 nM | Cc1nnn(Cc2cc(Cl)ccc2/C=C/C(=O)N2CCC(CNC(=O)CCc3cc(O)no3)CC2)n1 [Example 147, (E)-N-((1-(3-(4-Chloro-2-((5-methyl-2H-tetrazol-2-yl)methyl)phenyl)acryloyl)piperidin-4-yl)methyl)-3-(3-hydroxyisoxazol-5-yl)propanamide]
